Reference: patent US11655235B2, “Pyrrolidine and piperidine compounds” (YUHAN CORPORATION, priority 2019, dated 2023)

Experiments:
Format in all cases: biochemical
[1] = biological target: T1, recombinant human DPP8 (Homo sapiens, UniProt Q6V1X1); experiment: DPP8 inhibition, fluorogenic substrate Z-Ala-Pro-AMC; conditions: recombinant human DPP8
T1 construct: purchased PBS Bioscience
Outline: (§1)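 Inhibitors are titrated in an 8-point series into the enzyme's assay buffer (DMSO no more than 0.5%). Substrate cleavage at 25 °C is followed by fluorescence, excitation 380 nm and emission 460 nm. IC50 values come from a four-variable logistic model.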

[2] = biological target: T2, recombinant human PREP (Homo sapiens, UniProt P48147); experiment: PREP inhibition, fluorogenic substrate Z-Gly-Pro-AMC; conditions: Inhibitory Activity (IC50, nM) PREP, recombinant human PREP
T2 construct: purchased R&D System
T2 sequence (P48147 1-710): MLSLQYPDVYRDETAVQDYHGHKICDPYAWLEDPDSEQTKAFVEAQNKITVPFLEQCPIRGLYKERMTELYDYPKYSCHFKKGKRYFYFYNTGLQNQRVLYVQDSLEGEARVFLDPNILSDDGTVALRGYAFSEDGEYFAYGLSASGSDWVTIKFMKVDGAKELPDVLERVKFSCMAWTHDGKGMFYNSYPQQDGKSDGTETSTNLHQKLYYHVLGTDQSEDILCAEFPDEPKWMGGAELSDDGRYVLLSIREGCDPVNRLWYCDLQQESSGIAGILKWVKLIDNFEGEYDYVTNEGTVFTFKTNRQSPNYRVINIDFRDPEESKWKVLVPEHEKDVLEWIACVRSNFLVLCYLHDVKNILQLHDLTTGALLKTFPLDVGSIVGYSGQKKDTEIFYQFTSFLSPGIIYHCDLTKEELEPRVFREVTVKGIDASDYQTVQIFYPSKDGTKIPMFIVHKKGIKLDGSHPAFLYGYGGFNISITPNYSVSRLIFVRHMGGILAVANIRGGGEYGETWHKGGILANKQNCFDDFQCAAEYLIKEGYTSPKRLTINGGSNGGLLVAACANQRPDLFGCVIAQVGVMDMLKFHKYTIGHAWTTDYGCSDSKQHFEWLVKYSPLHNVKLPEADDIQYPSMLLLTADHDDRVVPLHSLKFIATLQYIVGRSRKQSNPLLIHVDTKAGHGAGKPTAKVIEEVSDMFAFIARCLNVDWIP
Outline: as §1

[3] = biological target: T3, recombinant human DPP9 (Homo sapiens, UniProt Q86TI2); experiment: DPP9 inhibition, fluorogenic substrate H-Gly-Pro-AMC; conditions: recombinant human DPP9
T3 construct: purchased R&D Systems
T3 sequence (Q86TI2 whole entry): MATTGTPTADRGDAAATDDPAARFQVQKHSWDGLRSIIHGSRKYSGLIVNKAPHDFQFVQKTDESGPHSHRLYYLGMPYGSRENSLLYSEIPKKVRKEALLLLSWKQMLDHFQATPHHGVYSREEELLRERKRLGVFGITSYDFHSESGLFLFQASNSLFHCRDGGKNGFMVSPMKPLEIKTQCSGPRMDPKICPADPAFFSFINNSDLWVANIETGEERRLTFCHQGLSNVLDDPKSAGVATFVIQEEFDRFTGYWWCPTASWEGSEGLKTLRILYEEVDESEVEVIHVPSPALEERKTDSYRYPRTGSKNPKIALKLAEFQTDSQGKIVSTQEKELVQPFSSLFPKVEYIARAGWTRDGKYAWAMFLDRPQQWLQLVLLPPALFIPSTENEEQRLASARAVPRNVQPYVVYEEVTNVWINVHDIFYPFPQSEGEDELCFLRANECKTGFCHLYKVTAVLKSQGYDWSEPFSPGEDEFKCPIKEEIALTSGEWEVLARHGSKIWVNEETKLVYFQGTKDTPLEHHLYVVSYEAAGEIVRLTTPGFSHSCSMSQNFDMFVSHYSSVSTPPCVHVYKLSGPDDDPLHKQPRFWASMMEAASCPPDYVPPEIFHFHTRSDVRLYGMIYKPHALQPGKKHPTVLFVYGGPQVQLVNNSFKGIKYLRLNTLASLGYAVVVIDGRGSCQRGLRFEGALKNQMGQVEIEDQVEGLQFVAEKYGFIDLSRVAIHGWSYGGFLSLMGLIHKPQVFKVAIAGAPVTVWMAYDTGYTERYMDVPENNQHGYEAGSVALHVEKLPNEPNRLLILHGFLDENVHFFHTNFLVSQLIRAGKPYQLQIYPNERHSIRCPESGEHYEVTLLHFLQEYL
Outline: as §1

[4] = biological target: DPP4 (Homo sapiens, UniProt P27487); experiment: DPP4 inhibition, fluorogenic substrate H-Gly-Pro-AMC; parameters: purchased R&D Systems; conditions: recombinant human DPP4
DPP4, sequence (P27487 whole entry): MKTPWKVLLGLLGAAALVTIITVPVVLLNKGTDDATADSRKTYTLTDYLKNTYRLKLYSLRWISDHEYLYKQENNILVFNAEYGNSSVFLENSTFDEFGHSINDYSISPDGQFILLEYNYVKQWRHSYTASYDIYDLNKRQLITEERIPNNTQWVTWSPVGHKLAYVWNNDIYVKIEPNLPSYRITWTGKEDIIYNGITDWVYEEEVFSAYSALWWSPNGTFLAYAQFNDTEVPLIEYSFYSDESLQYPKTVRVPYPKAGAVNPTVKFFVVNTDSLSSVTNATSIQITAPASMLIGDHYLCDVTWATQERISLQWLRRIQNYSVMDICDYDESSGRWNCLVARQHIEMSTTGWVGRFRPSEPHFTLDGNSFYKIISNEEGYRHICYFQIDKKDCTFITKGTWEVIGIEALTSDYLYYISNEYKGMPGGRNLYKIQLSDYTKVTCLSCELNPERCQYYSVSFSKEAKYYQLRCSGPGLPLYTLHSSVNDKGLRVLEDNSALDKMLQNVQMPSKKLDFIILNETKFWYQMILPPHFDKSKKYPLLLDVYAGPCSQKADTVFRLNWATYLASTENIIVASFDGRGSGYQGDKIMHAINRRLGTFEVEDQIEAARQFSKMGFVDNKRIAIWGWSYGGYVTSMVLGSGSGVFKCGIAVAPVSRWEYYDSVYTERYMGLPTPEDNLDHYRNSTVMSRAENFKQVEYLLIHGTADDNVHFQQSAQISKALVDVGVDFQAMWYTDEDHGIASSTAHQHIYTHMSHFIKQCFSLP

[5] = biological target: T4, recombinant human DPP7 (Homo sapiens, UniProt Q9UHL4); experiment: DPP7 inhibition, fluorogenic substrate Lys-Pro-AMC; conditions: recombinant human DPP7
T4 construct: purchased R&D Systems
Outline: as §1

[6] = biological target: T5, Recombinant human FAP (Homo sapiens, UniProt Q12884); experiment: FAP FRET assay, FGF21-sequence FRET peptide substrate; conditions: FRET peptide with human FGF21 sequence, 6 μM, 37° C.
T5 construct: purchased R&D systems
T5 sequence (Q12884 1-760): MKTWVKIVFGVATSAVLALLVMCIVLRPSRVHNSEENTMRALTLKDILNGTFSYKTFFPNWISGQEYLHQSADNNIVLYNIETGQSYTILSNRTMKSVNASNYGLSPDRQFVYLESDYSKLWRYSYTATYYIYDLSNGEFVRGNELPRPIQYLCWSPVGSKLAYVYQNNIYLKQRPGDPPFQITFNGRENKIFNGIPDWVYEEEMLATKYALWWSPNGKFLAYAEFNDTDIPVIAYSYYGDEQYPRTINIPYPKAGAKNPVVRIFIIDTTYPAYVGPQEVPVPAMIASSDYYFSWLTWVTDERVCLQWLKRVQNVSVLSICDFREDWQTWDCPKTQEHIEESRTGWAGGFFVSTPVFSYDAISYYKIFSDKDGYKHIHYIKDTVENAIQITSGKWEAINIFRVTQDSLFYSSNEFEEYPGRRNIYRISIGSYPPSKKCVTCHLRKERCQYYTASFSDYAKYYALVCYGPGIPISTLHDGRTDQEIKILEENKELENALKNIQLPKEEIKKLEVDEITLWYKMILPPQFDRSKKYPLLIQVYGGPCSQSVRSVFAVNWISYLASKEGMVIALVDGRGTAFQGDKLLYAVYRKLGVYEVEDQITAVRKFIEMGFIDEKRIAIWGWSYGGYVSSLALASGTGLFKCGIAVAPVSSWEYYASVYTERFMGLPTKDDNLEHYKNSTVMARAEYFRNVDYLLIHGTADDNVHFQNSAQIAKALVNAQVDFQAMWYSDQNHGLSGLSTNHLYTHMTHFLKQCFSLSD
Outline: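 FRET peptide bearing human FGF21 sequence (6 μM final) cleaved by 10 ng recombinant human FAP at 37° C in HEPES pH 7.2 buffer with NaCl, BSA and EDTA, DMSO up to 0.1%. Signal-rate decrease versus uninhibited control fitted to a four-variable logistic model for IC50.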

T1 sequence (Q6V1X1 whole entry): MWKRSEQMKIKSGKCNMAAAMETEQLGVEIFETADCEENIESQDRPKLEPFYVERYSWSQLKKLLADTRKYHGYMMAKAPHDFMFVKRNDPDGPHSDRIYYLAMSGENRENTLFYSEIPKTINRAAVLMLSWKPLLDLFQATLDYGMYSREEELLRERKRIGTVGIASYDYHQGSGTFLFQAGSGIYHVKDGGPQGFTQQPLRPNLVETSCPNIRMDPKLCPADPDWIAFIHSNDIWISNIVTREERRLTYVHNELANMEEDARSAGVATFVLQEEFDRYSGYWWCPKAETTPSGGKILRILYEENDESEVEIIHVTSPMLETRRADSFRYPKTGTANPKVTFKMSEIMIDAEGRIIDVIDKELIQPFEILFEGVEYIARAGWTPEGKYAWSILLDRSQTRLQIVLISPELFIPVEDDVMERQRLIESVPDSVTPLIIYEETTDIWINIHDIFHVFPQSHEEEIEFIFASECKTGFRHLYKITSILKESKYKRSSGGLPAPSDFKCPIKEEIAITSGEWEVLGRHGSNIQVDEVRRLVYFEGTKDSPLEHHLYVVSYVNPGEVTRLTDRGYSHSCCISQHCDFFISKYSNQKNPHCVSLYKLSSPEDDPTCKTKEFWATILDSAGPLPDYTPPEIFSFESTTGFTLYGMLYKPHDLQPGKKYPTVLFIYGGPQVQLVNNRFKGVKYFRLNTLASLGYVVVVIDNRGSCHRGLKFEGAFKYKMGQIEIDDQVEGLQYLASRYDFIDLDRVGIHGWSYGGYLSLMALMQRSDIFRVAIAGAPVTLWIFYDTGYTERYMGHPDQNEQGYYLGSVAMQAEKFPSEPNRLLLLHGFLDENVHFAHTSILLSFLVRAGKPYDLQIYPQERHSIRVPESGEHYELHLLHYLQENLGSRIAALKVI

Structure (SMILES) | IC50 [1] [µM] | IC50 [2] [nM] | IC50 [3] [µM] | IC50 [4] [µM] | IC50 [5] [µM] | IC50 [6] [µM]
N#C[C@@H]1CCCN1C(=O)CN1CC[C@@H](Nc2ccc(OC(F)(F)F)c3ncccc23)C1 [Example 202, (2S)-1-[2-[(3R)-3-[[8-(trifluoromethoxy)-5-quinolyl]amino]pyrrolidin-1-yl]acetyl]pyrrolidine-2-carbonitrile] | 14.2 | 8080 | 13.1 | 12.1 | 6.81 | 0.0023
N#Cc1cccc2c(OC3CCN(CC(=O)N4C[C@@H](F)C[C@H]4C#N)CC3)ccnc12 [Example 434, 4-[[1-[2-oxo-2-[(2S,4S)-2-cyano-4-fluoro-pyrrolidin-1-yl]ethyl]-4-piperidyl]oxy]quinoline-8-carbonitrile] | 2.74 | 395 | 4.51 | 2.44 | 4.31 | 0.0036
Cc1cccc2c(OC3CCN(CC(=O)N4C[C@@H](F)C[C@H]4C#N)CC3)ccnc12 [Example 439, (2S,4S)-4-fluoro-1-[2-[4-[(8-methyl-4-quinolyl)oxy]-1-piperidyl]acetyl]pyrrolidine-2-carbonitrile] | 2.7 | 75 | 5.46 | 6.31 | 3.11 | 0.0037
CNC(=O)c1ccc(N[C@H]2CCN(CC(=O)N3CCC[C@H]3C#N)C2)c2cccnc12 [Example 286, N-methyl-5-[[(3S)-1-[2-oxo-2-[(2S)-2-cyanopyrrolidin-1-yl]ethyl]pyrrolidin-3-yl]amino]quinoline-8-carboxamide] | 19.8 | 6300 | 32.2 | 10.9 | 3.1 | 0.0093
CNC(=O)c1ccc(N[C@H]2CCN(CC(=O)N3C[C@@H](F)C[C@H]3C#N)C2)c2cccnc12 [Example 281, N-methyl-5-[[(3S)-1-[2-oxo-2-[(2S,4S)-2-cyano-4-fluoro-pyrrolidin-1-yl]ethyl]pyrrolidin-3-yl]amino]quinoline-8-carboxamide] | 4.45 | 2450 | 2.6 | 2.75 | 1.13 | 0.0034
CN(c1ccc(C(F)(F)F)c2ncccc12)[C@H]1CCN(CC(=O)N2C[C@@H](F)C[C@H]2C#N)C1 [Example 159, (2S,4S)-4-fluoro-1-[2-[(3S)-3-[methyl-[8-(trifluoromethyl)-5-quinolyl]amino]pyrrolidin-1-yl]acetyl]pyrrolidine-2-carbonitrile] | 7.59 | 430 | 3.7 | 1.86 | 0.061 | 0.0067
N#C[C@@H]1C[C@H](F)CN1C(=O)CN1CCC(Nc2ccc(C(=O)Nc3ncccn3)c3ncccc23)CC1 [Example 403, 5-[[1-[2-oxo-2-[(2S,4S)-2-cyano-4-fluoro-pyrrolidin-1-yl]ethyl]-4-piperidyl]amino]-N-pyrimidin-2-yl-quinoline-8-carboxamide] | 0.251 | 60.2 | 0.558 | 2.08 | 0.405 | 0.0018
N#C[C@@H]1CCCN1C(=O)CN1CCC(Nc2ccc(C(=O)Nc3ccncc3)c3ncccc23)CC1 [Example 401, 5-[[1-[2-oxo-2-[(2S)-2-cyanopyrrolidin-1-yl]ethyl]-4-piperidyl]amino]-N-(4-pyridyl)quinoline-8-carboxamide] | 0.266 | 1200 | 1.61 | 15.2 | 0.775 | 0.0059
N#C[C@@H]1C[C@H](F)CN1C(=O)CN1CC[C@@H](Nc2cccc3ncc(F)cc23)C1 [Example 184, (2S,4S)-4-fluoro-1-[2-[(3R)-3-[(3-fluoro-5-quinolyl)amino]pyrrolidin-1-yl]acetyl]pyrrolidine-2-carbonitrile] | 2.43 | 3150 | 5.15 | 1.29 | 2.76 | 0.0032
N#C[C@@H]1CCCN1C(=O)CN1CCC(Oc2ccnc3ccc(F)cc23)CC1 [Example 427, (2S)-1-[2-[4-[(6-fluoro-4-quinolyl)oxy]-1-piperidyl]acetyl]pyrrolidine-2-carbonitrile] | 36.6 | 5010 | ≥ 100 | 37.2 | 15.8 | 0.0056
N#C[C@@H]1C[C@H](F)CN1C(=O)CN1CCC(Oc2ccnc3cc(F)ccc23)CC1 [Example 433, (2S,4S)-4-fluoro-1-[2-[4-[(7-fluoro-4-quinolyl)oxy]-1-piperidyl]acetyl]pyrrolidine-2-carbonitrile] | 3.06 | 98 | 3.89 | 5.68 | 3.07 | 0.0051
N#C[C@@H]1CCCN1C(=O)CN1CCC(Nc2ccc(C(=O)Nc3ccccn3)c3ncccc23)CC1 [Example 399, 5-[[1-[2-oxo-2-[(2S)-2-cyanopyrrolidin-1-yl]ethyl]-4-piperidyl]amino]-N-(2-pyridyl)quinoline-8-carboxamide] | 1.2 | 627 | 3.33 | 17.4 | 1.01 | 0.0015
Cc1cnc2cccc(N(C)[C@H]3CCN(CC(=O)N4C[C@@H](F)C[C@H]4C#N)C3)c2c1 [Example 155, (2S,4S)-4-fluoro-1-[2-[(3S)-3-[methyl-(3-methyl-5-quinolyl)amino]pyrrolidin-1-yl]acetyl]pyrrolidine-2-carbonitrile] | 9.85 | 2540 | 5.72 | 1.85 | 2.9 | 0.0024
N#C[C@@H]1CCCN1C(=O)CN1CCC(Nc2ccc(C(=O)Nc3cccnc3)c3ncccc23)CC1 [Example 400, 5-[[1-[2-oxo-2-[(2S)-2-cyanopyrrolidin-1-yl]ethyl]-4-piperidyl]amino]-N-(3-pyridyl)quinoline-8-carboxamide] | 0.971 | 1960 | 2.01 | 17.4 | 0.961 | 0.0023
Cc1cc(OC2CCN(CC(=O)N3C[C@@H](F)C[C@H]3C#N)CC2)c2ccccc2n1 [Example 436, (2S,4S)-4-fluoro-1-[2-[4-[(2-methyl-4-quinolyl)oxy]-1-piperidyl]acetyl]pyrrolidine-2-carbonitrile] | 11.7 | 555 | 18.2 | 9.04 | 8.51 | 0.0111
N#C[C@@H]1C[C@H](F)CN1C(=O)CN1CCC(Nc2ccc(C(=O)Nc3ccncc3)c3ncccc23)CC1 [Example 406, 5-[[1-[2-oxo-2-[(2S,4S)-2-cyano-4-fluoro-pyrrolidin-1-yl]ethyl]-4-piperidyl]amino]-N-(4-pyridyl)quinoline-8-carboxamide] | 0.0233 | 535 | 0.218 | 2.7 | 0.402 | 0.0042
